The values below come from patent publication US20250204541A1, “GAS PHASE TREATMENT OF PRODUCE” (priority 2022, published 2025).

In assay [1] the test system is Colletotrichum gloeosporioides (Cg). The experiment in a line: Antifungal activity of vapor against Colletotrichum gloeosporioides in avocados. The class given is in vivo. Conditions: Example 22, 30 minutes vapor of 62.5-500 μL on filter paper disc, assessed on day 5.
Assay [2] has as its system Botrytis cinerea (Bc). The experiment in a line: Antifungal activity of AITC vapor against Botrytis cinerea in strawberries. The class given is in vivo. The note with it: for strawberries infected: Example 14, ambient temperature, day 6. As to the method: Example 13. The antifungal activity of AITC vapor against Bc in strawberries was tested. All samples were wounded by making a 3 mm deep puncture in the skin. Samples were infected by dispensing 1000 Bc spores suspended in 10 μL of water in the wound. Samples were then incubated at ambient temperature, imaged, and assessed for mold over the following 3 days. The test group consisted of strawberries that were: uninfected and untreated; infected and untreated; and exposed for 30 minutes to the vapor of 125 μL AITC dispensed on Whatman filter paper. […] The infection rates in the initially uninfected sample indicate that the step involving the initial infection of the wound by dispensing the Bc spores may not be necessary to promote infection in the test groups.
Example 14. The antifungal activity of a range of AITC vapor concentrations against Bc in strawberries was tested. Samples were treated by exposure for 30 minutes to the vapor of a range of volumes of AITC disposed on a filter paper disc, then incubated at ambient temperature, imaged, and assessed for mold over the following 6 days. Test groups consisted of strawberries that were untreated and strawberries exposed to the vapor of 62.5 μL, 125 μL, 250 μL, and 500 μL of AITC. […] On day 6, 83% of the untreated control strawberries were infected, 100% of the 62.5 μL AITC dose strawberries were infected, 13% of the 125 μL AITC dose strawberries were infected, and 0% of the 250 and 500 μL AITC dose strawberries were infected. For strawberries incubated at room temperature, all of the AITC doses above 62.5 μL were effective at preventing mold, with doses above 125 μL substantially eliminating mold.
Example 15. The antifungal activity of AITC vapor under different exposure conditions against Bc in strawberries was tested. Test groups consisted of strawberries that were untreated and treated by exposure for 30 minutes to the vapor of 125 μL of AITC disposed on a filter paper disc. Test groups were then incubated in either open or closed containers at 4° C., imaged, and assessed for mold over the following 14 days. […] All samples were free of mold through 7 days. On day 12, 16.7% of the open air controls were infected, 29.2% of closed container controls were infected, and 0% of the AITC treated were infected. On day 14, 33.3% of the open air controls were infected, 41.7% of closed container controls were infected, 0% of the open air AITC treated were infected, and 4.2% of the closed container AITC treated were infected. For strawberries incubated at 4° C., AITC treatment was effective in reducing the incidence of mold over a two week period. While ⅓ of the open air untreated samples were infected, none of the open air AITC-treated were infected. Over 40% of the closed container controls were infected. A single strawberry was infected in the closed container AITC-treated test group.
Example 16. The antifungal activity of AITC vapor against Bc in strawberries treated with a coating agent (95 wt % glyceryl monostearate and 5 wt % sodium stearate) and exposed to vapor in clamshells was tested. Test groups consisted of strawberries that were: untreated; dipped in 40 g/L solution of the coating agent; exposed for 30 minutes to the vapor of 125 μL of AITC disposed on a filter paper disc; and dipped in 40 g/L solution of the coating agent and exposed for 30 minutes to the vapor of 125 μL of AITC disposed on a filter paper disc. Samples were treated, incubated at ambient temperature, imaged, and assessed for mold over the following 4 days. […] On day 3, 52.8% of the controls were infected, 42.1% of the coating agent were infected, 26.3% of the AITC were infected, and 9.3% of the coating agent+AITC were infected. On day 4, 88.9% of the controls were infected, 76.3% of the coating agent were infected, 71% of the AITC were infected, and 34.9% of the coating agent+AITC were infected. […] Bowl dipping in the coating solution also presented challenges for drying around the calyx.
Example 17. […]

The structures appear in SMILES notation.

For `C=CCN=C=S` [AITC, allyl isothiocyanate], the “incidence of Cg mold” value in assay [1] was “reduced the incidence of Cg mold compared to the untreated samples, the samples treated with coating agent, and the prochloraz treated sample”. The “samples showing visible mold” value in assay [2] (Example 13, strawberries, 30 minutes vapor of 125 μL, after 24 hours) is given as “no mold was visible”. Besides, the “fraction of samples showing visible mold” value in assay [2] (Example 13, strawberries, 30 minutes vapor of 125 μL, after 48 hours) is reported as “⅛”; in assay [2] (Example 13, strawberries, 30 minutes vapor of 125 μL, after 72 hours) it was “¼”. Besides, the strawberries infected in assay [2] (62.5 μL dose, 30 minutes) stood at 100%; in assay [2] (125 μL dose, 30 minutes), 13%; in assay [2] (250 μL dose, 30 minutes), 0%; in assay [2] (500 μL dose, 30 minutes), 0%. For the same compound, the infected is given as 4.2% in assay [2] (Example 15, strawberries, 125 μL, 30 minutes, 4° C., closed container, day 14); 0% in assay [2] (Example 15, strawberries, 125 μL, 30 minutes, 4° C., open air, day 14); 0% in assay [2] (Example 15, strawberries, 125 μL, 30 minutes, 4° C., open or closed containers, day 12); 26.3% in assay [2] (Example 16, strawberries in clamshells, coating agent 40 g/L dip, AITC 125 μL 30 minutes, ambient, day 3); 71% in assay [2] (Example 16, strawberries in clamshells, coating agent 40 g/L dip, AITC 125 μL 30 minutes, ambient, day 4). Besides, the “mold” value in assay [2] (Example 15, strawberries, 125 μL, 30 minutes, incubated at 4° C., through 7 days) is given as “free of mold”.
